In patent US20230320984A1, “TOFACITINIB-CONTAINING ANHYDROUS ELASTOMER-BASED GEL FORMULATIONS” (Vyne Therapeutics Inc., priority 2022, published 2023):
Counter-ions that a name gives are not always drawn. Like-named read-outs stand apart in the source and are kept apart here.

Key:
[1] = test system: Hartley-derived albino guinea pigs; details: for test animals with erythema scores of 1 / test animals with erythema scores of 2: 0.1% w/v DNCB challenge
Description: A DNCB positive control group consisting of 10 DNCB test and 10 DNCB control guinea pigs are included in this study. The animals are treated as below with the DNCB test animals receiving 0.1% w/v DNCB in acetone and ethanol for induction and 0.1% and 0.05% w/v DNCB in acetone and ethanol for challenge.
The Test Article, placebo control, and the appropriate positive control articles are administered dermally for approximately 6 hours once on Days 0, 7, and 14 for inductions 1 to 3. The animals are reclipped on the day prior to dosing or induction to visualize the test sites clearly for grading. Following a 2-week rest period, a challenge (Day 28) is performed for Test Article group and placebo group on the same animal but on a different test site than the induction site. During the challenge phase the 20 Test Article group and 10 common challenge control guinea pigs are topically treated with Test Article and the 20 placebo control article and the same 10 common challenge control guinea pigs (separate test sites) are topically treated with placebo. Challenge responses for each of these groups are compared with those of the common challenge control animals. If challenge results are considered indefinite a rechallenge is conducted.
On the day prior to the first DNCB induction or dose administration (Day −1), the hair is removed from the left side of the test animals with a small animal clipper. Care is taken to avoid abrading the skin during the clipping procedures. On the day following clipping (Day 0), chambers containing the appropriate material are applied to the clipped area of the test animals and DNCB test animals. For the induction and challenge phases, a dose of 0.3 mL (or maximum volume for viscous materials) is placed on a 25 mm Hill Top Chamber® backed by adhesive tape (occlusive patch). The chambers are then applied to the clipped surface as quickly as possible.
The application site for induction is moved when irritation persists from a previous induction exposure (to ensure the test article is not dosed on compromised skin) but remains on the left side of the animal.
On the day prior to challenge dose administration, the test, placebo control article, challenge control, DNCB test, and DNCB challenge control animals are weighed, and the hair is removed from the right side of the animals.

[2] = test system: Human skin from cosmetic reduction surgery; assay: Skin penetration (IVPT), vertical diffusion cell (Method A); type: in vitro ADME
Description: The skin is dosed with approx. 6 mg of formulation to achieve a dose of ˜ 10 mg/cm2. Receptor solution is collected at pre-determined intervals over the course of 24 hours and analyzed using a liquid chromatography with tandem mass spectrometry (LC-MS/MS) analytical method.
Following 24 hours, the residual formulation is removed from the surface of the skin. The skin surface is tape-stripped up to five times to remove residual formulation and the top of the skin surface layers (Stratum Corneum). The epidermis is then heat-separated from the dermis. The active agent is extracted from the skin layers and the amount of active agent delivered to the epidermis and dermis is then determined by LC-MS/MS.

[3] = AD murine model: body weight
Description: (§1) Atopic Dermatitis is induced by once daily application for 38 days of 100 μl of 0.5% 2,4-dinitrochlorobenzene (DNCB) solution onto the shaved back skin of mice. Starting on day 32, test formulations are administered once daily onto the shaved back skin of mice in addition to DNCB. Several measurements are taken at different time points:
Daily from Day 32: Body weight, mortality, behaviour (scratching), general condition, AD index.

[4] = cited from earlier work
[5] = Solubility test of tofacitinib citrate in solvents and excipients (Method D); type: physicochemical
Description: Saturated solutions of tofacitinib citrate in various solvents are generated by agitating (stirring) an excess amount of solid crystalline tofacitinib citrate in the corresponding solvent at ambient conditions. […] An additional analysis is performed after 48 hours of agitation to confirm the determined saturated concentration.

[6] = Stability of tofacitinib citrate solution in 50 mM citrate buffer at different pH, 60° C.; type: physicochemical; parameters: unit not given here
Description: In one or more embodiments the pH, is about 4, about 4.1, about 4.2, about 4.3, about 4.4, about 4.5, about 4.6, about 4.7, about 4.8, about 4.9 or about 5.

[7] = test system: Atopic Dermatitis induced by 2,4-dinitrochlorobenzene (DNCB); assay: AD murine model: Atopic Dermatitis Index (ADI, mADI) (Method C); type: in vivo; details: DNCB induced mice
Description: In the mouse model the positive control is observed to cause a marked weight loss and thinning of the skin and this can be perceived to mask the scoring observed with the other parameters and omitting it may on one level provide a clearer representation of the treatment potential of the combination since no marked weight loss or thinning is noted other than with the positive control.
The presence of erythema/haemorrhage is scored based on the following scoring grid: • 0=no or no more erythema/haemorrhage on the skin, • 1=weak erythema/haemorrhage on the skin, • 2=moderate erythema/haemorrhage on the skin, • 3=severe erythema/haemorrhage on the skin.
The presence of edema/thickening is scored based on the following scoring grid: • 0=no or no more edema/thickening of the skin, • 1=weak edema/thickening of the skin, • 2=moderate edema/thickening of the skin, • 3=severe edema/thickening of the skin.
The presence of excoriation/erosion is scored based on the following scoring grid: • 0=no or no more excoriation/erosion of the skin, • 1=weak excoriation/erosion of the skin, • 2=moderate excoriation/erosion of the skin, • 3=severe excoriation/erosion of the skin.
The presence of dryness/peeling is scored based on the following scoring grid: • 0=no or no more dryness/peeling of the skin, • 1=weak dryness/peeling of the skin, • 2=moderate dryness/peeling of the skin, • 3=severe dryness/peeling of the skin.
Several measurements are taken at different time points: […]

clinical = details: human, in vivo
Description: (§2) Values below the limit of concentration are omitted from determination of geometric mean and geometric % CV.
(§3) Frozen samples are thawed at room temperature and homogenized by vortexing. 10 μL of ISTD2 and 104, of Methanol/Water (50/50, v/v) to each sample (exception blank samples for which 20.0 μL Methanol/Water (50/50, v/v) is added) is addeded to Eppendorf tubes each containing 100 μL sample. 300 μL of acetonitrile is added to each sample and vortexed for additional 10 sec. Next samples are centrifuged for 10 min at 14000 rpm at 5° C. 310 μL of the supernatant is transferred into a 96-DWP. Samples are evaporated at approximately 40° C. (turbovap 96) under N2. 100 μL mobile phase A (see table below) is added to each sample and the 96-DWP is sealed with heatsealing foil and shaken for 5 min on a Vortex-shaker and then centrifuged for 5 min with settings 4500 rpm at 5° C. The 96-DWP is transferred to the autosampler and then the samples are diluted by 100-fold, first by adding 10 μl of sample in 904, of blank plasma/water (dilution 1/10) and then by pipetting 104, of sample diluted 10 fold in 904, of blank plasma (dilution 1/100). The diluted samples are vortexed for 5 sec and processed.
(§4) After, the analyte is separated on a Luna Omega Polar C18 column (50×2.1 mm, 3 μm) with gradient elution of a mobile phase composed of water/acetonitrile/ammonium formate/formic acid it is analyzed using electrospray ionization (ESI) tandem mass spectrometry (MS/MS) in the multiple reaction monitoring mode (MRM).

[8] = Chemical stability of formulations (Method H); type: physicochemical; details: gel with Tofacitinib Citrate 1.0% and Fingolimod HCl 0.01% (Table 38)
Description: Where another active agent such as fingolimod is present in the formulations the samples are analyzed for that active agent and its degradation products by HPLC. […] The gradient elution is employed.

[9] = human, in vivo
Description: as §2, §3, §4

[10] = test system: Atopic Dermatitis induced by DNCB; parameters: species or system mice; details: mouse, in vivo
Description: as §1
Day 39: Histological analysis of skin samples, microscopic scoring of AD, blood assays, assay for pro-inflammatory cytokines IL-1β, IL-6, IL-18, TNF-α, IgE, and histamine assays.

[11] = Ex 43 Table 43 (fingolimod and tofacitinib)
[12] = Ex 42 Table 42 (fingolimod alone)

Compound: O=[N+]([O-])c1ccc(Cl)c([N+](=O)[O-])c1 [DNCB, 2,4-dinitrochlorobenzene]
- test animals with dermal scores of 1 ([1]; 0.05% w/v DNCB challenge, 24-hour scoring interval): 4/10
- test animals with erythema scores of 1 ([1]; 24-hour scoring interval): 5/10
- test animals with erythema scores of 2 ([1]; 24-hour scoring interval): 5/10
- test animals with erythema scores of 1 ([1]; 48-hour scoring interval): 6/10
- test animals with erythema scores of 2 ([1]; 48-hour scoring interval): 4/10
- Group mean dermal score at challenge ([1]; challenge with 0.05% w/v DNCB in acetone and ethanol, control animals 0.25): 0.6
- Group mean dermal score at challenge ([1]; challenge with 0.1% w/v DNCB in acetone and ethanol, control animals 0.375): 1.45

Compound: CCCCCCCCc1ccc(CCC(N)(CO)CO)cc1 [Fingolimod HCl 0.011%]
- Dermis concentration, ng (based on the Mean) [2, 11]: 14.82 ng
- Epidermis concentration, ng (based on the Mean) [2, 11]: 16.21 ng

Compound: CCCCCCCCc1ccc(CCC(N)(CO)CO)cc1 [Fingolimod HCl 0.022%]
- Dermis concentration, ng (based on the Mean) [2, 12]: 49.16 ng
- Epidermis concentration, ng (based on the Mean) [2, 12]: 37.5 ng

Compound: CCCCCCCCc1ccc(CCC(N)(CO)CO)cc1 [Fingolimod hydrochloride]
- tolerability (body weight) ([3]; fingolimod AD study, 0.1% w/w and 1% w/w): not well tolerated
- solubility ([4]; ethanol): soluble
- solubility ([4]; range from pH 1.2-4.5): freely soluble
- solubility ([4]; water and methanol): freely soluble

Compound: C[C@@H]1CCN(C(=O)CC#N)C[C@@H]1N(C)c1ncnc2[nH]ccc12 [Tofacitinib citrate]
- Solubility of TOF Citrate ([5]; in 0.02% HCl): 4.06 mg/g
- Solubility of TOF Citrate ([5]; in 0.05% NaOH): ND (degraded)
- Solubility of TOF Citrate ([5]; in Benzyl Alcohol): 0.81 mg/g
- Solubility of TOF Citrate ([5]; in DMSO): >150 mg/g
- Solubility of TOF Citrate ([5]; in Diisopropyl adipate): 0.02 mg/g
- Solubility of TOF Citrate ([5]; in Dimethyl isosorbate): 1.27 mg/g
- Solubility of TOF Citrate ([5]; in Ethanol): 0.61 mg/g
- Solubility of TOF Citrate ([5]; in Glycerin): 0.97 mg/g
- Solubility of TOF Citrate ([5]; in Hexylene Glycol): 0.25 mg/g
- Solubility of TOF Citrate ([5]; in Isopropyl Alcohol): 0.24 mg/g
- Solubility of TOF Citrate ([5]; in Isopropyl myristate): <0.02 mg/g
- Solubility of TOF Citrate ([5]; in MCT oil (Caprylic/capric triglycerides)): <0.01 mg/g
- Solubility of TOF Citrate ([5]; in Oleyl alcohol): 0.09 mg/g
- Solubility of TOF Citrate ([5]; in PPG-11 Stearyl ether): 0.02 mg/g
- Solubility of TOF Citrate ([5]; in Polyethylene Glycol 200): 5.16 mg/g
- Solubility of TOF Citrate ([5]; in Polyethylene Glycol 400): 6.96 mg/g
- Solubility of TOF Citrate ([5]; in Propylene Glycol): 1.70 mg/g
- Solubility of TOF Citrate ([5]; in Transcutol): 2.01 mg/g
- Solubility of TOF Citrate ([5]; in Water): 2.77 mg/g
- Imp B ([6]; pH 4.5, 2 w): 0.10
- RRT 1.29 ([6]; pH 5, 1 w): 0.09
- RRT 1.42 ([6]; pH 5, 1 w): 0.14
- RRT 1.29 ([6]; pH 5, 2 w): 0.08

Compound: CC1(C)O[C@@H]2C[C@H]3[C@@H]4CCC5=CC(=O)C=C[C@]5(C)[C@@]4(F)[C@@H](O)C[C@]3(C)[C@]2(C(=O)CO)O1 [Triamcinolone acetonide]
- Body weight: Weight D32 ([3]; DNCB induced mice, Example 41, D32 (treatment start), mean): 18.31
- Body weight: Weight D39 ([3]; DNCB induced mice, Example 41, D39, mean): 15.66
- Mean Body Weight Change d39 − d32 ([3]; DNCB induced mice, Example 41, (+) weight gain, (−) weight loss): −2.65
- ADI breakdown: Dryness-Peeling D39 ([7]; Example 41, D39): 0.88
- ADI breakdown: Edema-Thickening D39 ([7]; Example 41, D39): 0.00
- ADI breakdown: Erythema-Haemorrhage D39 ([7]; Example 41, D39): 0.00
- ADI breakdown: Excoriation-Erosion D39 ([7]; Example 41, D39): 0.00

Compound: C[C@@H]1CCN(C(=O)CC#N)C[C@@H]1N(C)c1ncnc2[nH]ccc12 [tofacitinib]
- AUC(0-t) (clinical; AUC(0-12) Median): 1.97 ng·h/mL
- AUC(0-t) (clinical; AUC(0-24) Geomean): 3.21 ng·h/mL
- AUC(0-t) (clinical; AUC(0-24) Mean): 4.03 ng·h/mL
- AUC(0-t) (clinical; AUC(0-24) Median): 3.14 ng·h/mL
- Tmax (clinical; Tmax Geomean): 5.05 h
- Tmax (clinical; Tmax Median): 6 h
- Assay of Tofacitinib, % LC ([8]; 2 months at 40° C.): 99.2 % LC
- Assay of Tofacitinib, % LC ([8]; 2 months at 50° C.): 98.6 % LC
- Assay of Tofacitinib, % LC ([8]; 3 weeks at 5° C.): 99.3 % LC
- Assay of Tofacitinib, % LC ([8]; 3 weeks at 50° C.): 99.1 % LC
- AUC(0-12) Median [9]: 1.056 ng·h/mL
- Tmax Geomean [9]: 3.00 h
- Tmax Median [9]: 3.00 h

Compound: CC1(C)O[C@@H]2C[C@H]3[C@@H]4CCC5=CC(=O)C=C[C@]5(C)[C@@]4(F)[C@@H](O)C[C@]3(C)[C@]2(C(=O)CO)O1 [triamcinolone acetonide]
- AD Index, Mean ADI values D 39 ([7]; combination study (Example 41), D 39): 0.88

Compound: Triamcinolone
- Body weight D39, Mean ([3]; mouse, in vivo): 17.7 g
- Body weight D39 mean ([3]; mouse, in vivo): 17.1 g
- Mean Body Weight Change d39 − d32 ([3]; mouse, in vivo): −2.80
- skin thinner than vehicle-treated normal skin [10]: about 0.8 fold
